Data: patent US20170158702A1, “MULTIVALENT RAS BINDING COMPOUNDS” (KYRAS THERAPEUTICS, INC., priority 2015, published 2017)
Structures can show the parent of a compound that is named as a salt.

Legend:
Format in all cases: cell-based
NCI-H460 = test: Viability assay with NCI-H460 (CellTiter-Glo cytotoxicity assay, 72 h); details: NCI-H460 cell line, 72 h after compounds addition
Summary of the method: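 NCI-H460 cells, RPMI 1640 + 10% FBS, seeded 1200/well and adhered overnight, then exposed to compounds at 9 points, 2-fold dilution, in triplicate, 0.5% DMSO final. Cellular ATP measured by CellTiter-Glo luminescence 72 h after addition.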

MIA PaCa-2 = test: Viability assay with MIA PaCa-2; details: MIA PaCa-2, viability assay per Example 57
Summary of the method: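 MIA PaCa-2 cells were seeded at 1200/well, allowed to adhere overnight, then treated in triplicate with 9-point 2-fold compound dilutions at 0.5% final DMSO. Viability was measured as cellular ATP by CellTiter-Glo luminescence 72 h after compound addition.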

U2OS = test: Viability assay with U2OS; details: viability assay per Example 57
Description: (§1) NCI-H460 (Epithelial lung tissue; carcinoma; large cell lung cancer) were cultured in RPMI Medium 1640 (Invitrogen-22400105) supplemented with 10% fetal bovine serum (FBS; Invitrogen-10099141). All the cell lines were maintained in a humidified incubator at 37° C. with 5% CO2. Cell culture media and supplements were purchased from Invitrogen, and tissue culture flasks were purchased from Corning, 96-well plates were purchased from Greiner. CellTiter-Glo Luminescent Cell Viability Assay kits were purchased from Promega (Promega-G7573), cells counter Vi-Cell was purchased from Beckman, D300e digital dispenser was purchased from Tecan, detection instrument Envision was purchased from PerkinElmer.
(§2) Paclitaxel was purchased from SELLECK, test compounds, such as any one of the compounds disclosed herein, attained solubility in DMSO and when diluted into culture media. DMSO, solutions containing the test compounds, and culture media were warmed to 37° C. or room temperature for the solution preparation and dilutions.
(§3) NCI-H460 Cell line were seeded in 96-well plates (1200/well) and allowed to adhere to overnight (100 uL/well), for drug treatments with 2 fold dilution, 9 dose points, triplicates or vehicle control, compound stock solutions were prepared in DMSO and use D300e digital dispenser to add compounds to the wells to give the indicated final drug concentrations. Final DMSO concentration was 0.5%. Cellular ATP concentrations were assessed by using the CellTiter-Glo Cell Viability Assay as per the manufacturer's instructions 72 h after compounds addition. Additional cells lines were assayed with any one of the compounds disclosed herein according to the procedures described for the viability assay with NCI-H460.
The viability assay with U2OS (epithelial bone tissue; osteosarcoma) was performed with compounds listed in Table 17 according to the procedures described in Example 57.

HT-29 = test: Viability assay with HT-29; details: HT-29, viability assay per Example 57
Summary of the method: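 Cells seeded 1200/well, adhered overnight, then treated with 9-point 2-fold compound dilutions in triplicate (0.5% final DMSO). Viability taken as cellular ATP by CellTiter-Glo luminescence 72 h after compound addition.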

NCI-H2023 = test: Viability assay with NCI-H2023; details: NCI-H2023, viability assay per Example 57
Description: as §1, §2, §3
A viability assay with NCI-H2023 (stage 3A, adenocarcinoma; non-small cell lung cancer) was performed with compounds listed in Table 16 according to the procedures described in Example 57.

Measured: EC50

NCCCn1cc(-c2ccc(OC(F)(F)F)cc2)c2cc(CN3CCN(Cc4cc(Cl)ccc4Cl)CC3)ccc21 [C156; HCl]
≤ 5 µM: NCI-H460 | MIA PaCa-2 | U2OS | HT-29

NCCCn1cc(-c2ccc(OC(F)(F)F)cc2)c2cc(CN3CCC4(CCN(Cc5ccccc5Cl)CC4)C3)ccc21 [C169; HCl]
≤ 5 µM: NCI-H460 | MIA PaCa-2 | U2OS | HT-29

NCCCn1cc(-c2ccccc2CN)c2cc(CN3CCN(Cc4c(Cl)cccc4Cl)CC3)ccc21 [C162; HCl]
≤ 5 µM: U2OS | HT-29

COc1ccc(-c2cn(CCCN)c3ccc(CN4CCN(Cc5c(Cl)cccc5Cl)CC4)cc23)cc1 [C22; Formic acid]
≤ 5 µM: NCI-H460 | MIA PaCa-2 | NCI-H2023 | U2OS

CC(C)(c1ccccc1Cl)N1CCN(Cc2ccc3c(c2)c(-c2ccc(OC(F)(F)F)cc2)cn3CCCN)CC1 [C166; Formic Acid]
≤ 5 µM: NCI-H460 | MIA PaCa-2 | U2OS | HT-29

NCCCn1cc(-c2cccc(CN)c2)c2cc(CN3CCN(Cc4c(Cl)cccc4Cl)CC3)ccc21 [C168; HCl]
≤ 5 µM: NCI-H460 | MIA PaCa-2 | U2OS | HT-29

NCCCCn1cc(-c2ccc(OC(F)(F)F)cc2)c2cc(CN3CCN(Cc4c(Cl)cccc4Cl)CC3)ccc21 [C43; HCl]
≤ 5 µM: NCI-H460 | MIA PaCa-2 | NCI-H2023 | U2OS

NCCCn1cc(-c2ccc(OC(F)(F)F)cc2)c2cc(CN3CCN(Cc4cccc(Cl)c4)CC3)ccc21 [C9; HCl]
≤ 5 µM: NCI-H460 | MIA PaCa-2 | U2OS

CN(CCN(C)Cc1ccccc1Cl)Cc1ccc2c(c1)c(-c1ccc(OC(F)(F)F)cc1)cn2CCCN [C172; HCl]
≤ 5 µM: NCI-H460 | MIA PaCa-2 | U2OS

NCCCn1cc(-c2ccc(OC(F)(F)F)cc2)c2cc(CN3CCN(Cc4cccc(OC(F)(F)F)c4)CC3)ccc21 [C163; HCl]
≤ 5 µM: NCI-H460 | MIA PaCa-2 | U2OS

CCc1ccc(-c2cn(CCCN)c3ccc(CN4CC5CCC(C4)N5Cc4ccccc4Cl)cc23)cc1 [C157; HCl]
≤ 5 µM: NCI-H460 | MIA PaCa-2 | U2OS

COc1ccccc1-c1cn(CCCN)c2ccc(CN3CCN(Cc4c(Cl)cccc4Cl)CC3)cc12 [C2; HCl]
≤ 5 µM: NCI-H460 | MIA PaCa-2 | U2OS
